Data as given in PubChem BioAssay AID256 (DTP/NCI, 2004).
Several values for one entry are separate records, joined by “and”; a condition that tells them apart may be missing. Identical values can stand only once. Inconclusive results and toxic doses are left out.

System: CD2F1 mice, L1210 leukemia ip, survival T/C
Experiment: NCI In Vivo Anticancer Drug Screen. Data for tumor model L1210 Leukemia (intraperitoneal) in CD2F1 (CDF1) mice
Conditions: higher = longer survival
Method in brief: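 Tumor-bearing mice (transplanted tumor) were split into treated and vehicle control groups, and the measured endpoint of each treated group was divided by that of its vehicle controls.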

[1] = endpoint: mean survival time, dose: 25.0 mg/kg/injection, schedule: Q01DX009 (ip), vehicle: Klucel (hydroxypropylcellulose) (HPC)
[2] = endpoint: mean survival time, dose: 50.0 mg/kg/injection, schedule: Q01DX009 (ip), vehicle: Klucel (hydroxypropylcellulose) (HPC)
[3] = endpoint: mean survival time, dose: 100.0 mg/kg/injection, schedule: Q01DX009 (ip), vehicle: Klucel (hydroxypropylcellulose) (HPC)
[4] = endpoint: mean survival time, dose: 200.0 mg/kg/injection, schedule: Q01DX009 (ip), vehicle: Klucel (hydroxypropylcellulose) (HPC)
[5] = endpoint: mean survival time, dose: 100.0 mg/kg/injection, schedule: Q01DX009 (ip), vehicle: saline with Tween-80
[6] = endpoint: mean survival time, dose: 200.0 mg/kg/injection, schedule: Q01DX009 (ip), vehicle: saline with Tween-80
[7] = endpoint: mean survival time, dose: 400.0 mg/kg/injection, schedule: Q01DX009 (ip), vehicle: saline with Tween-80
[8] = endpoint: mean survival time, dose: 100.0 mg/kg/injection, schedule: Q04DX003 (ip), vehicle: saline with Tween-80
[9] = endpoint: mean survival time, dose: 200.0 mg/kg/injection, schedule: Q04DX003 (ip), vehicle: saline with Tween-80
[10] = endpoint: mean survival time, dose: 400.0 mg/kg/injection, schedule: Q04DX003 (ip), vehicle: saline with Tween-80
[11] = endpoint: mean survival time, dose: 100.0 mg/kg/injection, schedule: Q01DX001 (ip), vehicle: saline with Tween-80
[12] = endpoint: mean survival time, dose: 200.0 mg/kg/injection, schedule: Q01DX001 (ip), vehicle: saline with Tween-80
[13] = endpoint: mean survival time, dose: 400.0 mg/kg/injection, schedule: Q01DX001 (ip), vehicle: saline with Tween-80
[14] = endpoint: mean survival time, dose: 50.0 mg/kg/injection, schedule: Q04DX003 (ip), vehicle: saline with Tween-80
[15] = endpoint: mean survival time, dose: 100.0 mg/kg/injection, schedule: Q01DX001 (ip), vehicle: Klucel (hydroxypropylcellulose) (HPC)
[16] = endpoint: mean survival time, dose: 200.0 mg/kg/injection, schedule: Q01DX001 (ip), vehicle: Klucel (hydroxypropylcellulose) (HPC)
[17] = endpoint: mean survival time, dose: 400.0 mg/kg/injection, schedule: Q01DX001 (ip), vehicle: Klucel (hydroxypropylcellulose) (HPC)
[18] = endpoint: mean survival time, dose: 100.0 mg/kg/injection, schedule: Q04DX002 (ip), vehicle: saline with Tween-80
[19] = endpoint: mean survival time, dose: 200.0 mg/kg/injection, schedule: Q04DX002 (ip), vehicle: saline with Tween-80

N#Cc1nc(N)nc2c1ncn2C1OC(CO)C(O)C1O (stereo unspecified)
T/C (endpoint: median survival time, dose: 8.75 mg/kg/injection, schedule: Q01DX005 (ip), vehicle: distilled water + Tween-80): 100 % of control
T/C (endpoint: median survival time, dose: 17.5 mg/kg/injection, schedule: Q01DX005 (ip), vehicle: distilled water + Tween-80): 107 % of control
T/C (endpoint: median survival time, dose: 35.0 mg/kg/injection, schedule: Q01DX005 (ip), vehicle: distilled water + Tween-80): 100 % of control
T/C (endpoint: median survival time, dose: 70.0 mg/kg/injection, schedule: Q01DX005 (ip), vehicle: distilled water + Tween-80): 100 % of control
T/C (endpoint: median survival time, dose: 140.0 mg/kg/injection, schedule: Q01DX005 (ip), vehicle: distilled water + Tween-80): 101 % of control

CCSCCCC(=O)O
T/C (endpoint: mean survival time, dose: 25.0 mg/kg/injection, schedule: Q01DX009 (ip), vehicle: saline): 97 % of control
T/C (endpoint: mean survival time, dose: 50.0 mg/kg/injection, schedule: Q01DX009 (ip), vehicle: saline): 93 % of control
T/C (endpoint: mean survival time, dose: 100.0 mg/kg/injection, schedule: Q01DX009 (ip), vehicle: saline): 101 % of control
T/C (endpoint: mean survival time, dose: 100.0 mg/kg/injection, schedule: Q04DX003 (ip), vehicle: saline sonified): 101 % of control

CCCC[P+](CCCC)(CCCC)Cc1ccc([N+](=O)[O-])cc1
T/C (endpoint: mean survival time, dose: 12.5 mg/kg/injection, schedule: Q01DX009 (ip), vehicle: Klucel (hydroxypropylcellulose) (HPC)): 104 % of control
T/C [1]: 96 % of control
T/C (endpoint: mean survival time, dose: 25.0 mg/kg/injection, schedule: Q04DX003 (ip), vehicle: Klucel (hydroxypropylcellulose) (HPC)): 94 % of control
T/C (endpoint: mean survival time, dose: 50.0 mg/kg/injection, schedule: Q01DX001 (ip), vehicle: Klucel (hydroxypropylcellulose) (HPC)): 96 % of control
T/C [2]: 115 % of control
T/C (endpoint: mean survival time, dose: 50.0 mg/kg/injection, schedule: Q04DX002 (ip), vehicle: Klucel (hydroxypropylcellulose) (HPC)): 96 % of control
T/C (endpoint: mean survival time, dose: 50.0 mg/kg/injection, schedule: Q04DX003 (ip), vehicle: Klucel (hydroxypropylcellulose) (HPC)): 94 % of control

CC1(OC(=O)c2ccccc2)CC(C)(C)[N+]([O-])=N1 (stereo unspecified)
T/C [1]: 96 % of control
T/C [2]: 96 % of control
T/C [3]: 100 % of control
T/C [4]: 91 % of control

NS(=O)(=O)c1ccc(NC(=O)Nc2cccc(F)c2)cc1
T/C [5]: 98 % of control
T/C [6]: 106 % of control
T/C [7]: 97 % of control

N#CCCC1C(=O)CCCC1=O
T/C [8]: 105 % of control
T/C [9]: 89 % of control
T/C [10]: 97 % of control

CCCCNC(=O)Nc1ccc(C(=O)OCC(C)C)cc1
T/C [5]: 94 % of control
T/C [8]: 108 % of control
T/C [6]: 91 % of control
T/C [9]: 94 % of control
T/C [7]: 90 % of control
T/C [10]: 90 % of control

O=C1O/C(=C\c2ccccc2)c2c(-c3ccccc3)ccc(-c3ccccc3)c21
T/C [11]: 95 % of control
T/C [12]: 95 % of control
T/C [13]: 95 % of control

Cc1c(NS(=O)(=O)c2ccccc2)c(C)c(NS(=O)(=O)c2ccccc2)c(C)c1NS(=O)(=O)c1ccccc1
T/C [14]: 92 % of control
T/C [8]: 88 % of control and 93 % of control
T/C [9]: 93 % of control and 94 % of control
T/C [10]: 96 % of control

O=C(O)CS(=O)(=O)c1ccc(Cl)cc1
T/C [15]: 111 % of control
T/C [16]: 103 % of control
T/C [17]: 100 % of control

FC(F)(F)c1ccc(Cl)c(N=C=S)c1
T/C [18]: 104 % of control
T/C [19]: 93 % of control

Clc1c(CI)ccc(CI)c1Cl
T/C (endpoint: mean survival time, dose: 25.0 mg/kg/injection, schedule: Q04DX003 (ip), vehicle: saline with Tween-80): 95 % of control
T/C [14]: 97 % of control
T/C [8]: 102 % of control

CC(C)(C)c1ccc(S(=O)(=O)CC(=O)O)cc1
T/C (endpoint: mean survival time, dose: 75.0 mg/kg/injection, schedule: Q01DX001 (ip), vehicle: other): 104 % of control
T/C [8]: 104 % of control
T/C (endpoint: mean survival time, dose: 150.0 mg/kg/injection, schedule: Q01DX001 (ip), vehicle: other): 100 % of control
T/C [9]: 102 % of control
T/C (endpoint: mean survival time, dose: 300.0 mg/kg/injection, schedule: Q01DX001 (ip), vehicle: other): 98 % of control
T/C [10]: 104 % of control

COC(=O)c1ccn2c1CCC2
T/C [1]: 92 % of control
T/C [2]: 87 % of control
T/C [3]: 91 % of control
T/C [4]: 97 % of control
T/C (endpoint: mean survival time, dose: 400.0 mg/kg/injection, schedule: Q01DX009 (ip), vehicle: Klucel (hydroxypropylcellulose) (HPC)): 87 % of control

Cc1ccc(C(=O)C[n+]2cccc3ccccc32)c(C)c1
T/C (endpoint: mean survival time, dose: 6.25 mg/kg/injection, schedule: Q01DX009 (ip), vehicle: saline with Tween-80): 101 % of control
T/C (endpoint: mean survival time, dose: 12.5 mg/kg/injection, schedule: Q01DX009 (ip), vehicle: saline with Tween-80): 94 % of control
T/C (endpoint: mean survival time, dose: 25.0 mg/kg/injection, schedule: Q01DX009 (ip), vehicle: saline with Tween-80): 95 % of control

O=C(NCCCN1CC1)C(=O)NCCCN1CC1
T/C (endpoint: mean survival time, dose: 3.13 mg/kg/injection, schedule: Q01DX009 (ip), vehicle: saline): 191 % of control
T/C (endpoint: mean survival time, dose: 12.5 mg/kg/injection, schedule: Q01DX009 (ip), vehicle: saline): 101 % of control

C=C1C2C(c3ccccc3)=CC(C1(C)C(Cl)Cl)C(C#N)(C#N)C2(C#N)C#N (stereo unspecified)
T/C (endpoint: mean survival time, dose: 50.0 mg/kg/injection, schedule: Q04DX002 (ip), vehicle: saline with Tween-80): 96 % of control
T/C [18]: 108 % of control
T/C [19]: 100 % of control

CC/C(=C(/CC)c1ccc(OP(=O)(Cl)N(CCCl)CCCl)cc1)c1ccc(OP(=O)(Cl)N(CCCl)CCCl)cc1 (stereo unspecified)
T/C (endpoint: median survival time, dose: 31.25 mg/kg/injection, schedule: Q01DX001 (ip), vehicle: distilled water + Tween-80): 108 % of control
T/C (endpoint: median survival time, dose: 62.5 mg/kg/injection, schedule: Q01DX001 (ip), vehicle: distilled water + Tween-80): 101 % of control
T/C (endpoint: median survival time, dose: 125.0 mg/kg/injection, schedule: Q01DX001 (ip), vehicle: distilled water + Tween-80): 97 % of control
T/C (endpoint: median survival time, dose: 250.0 mg/kg/injection, schedule: Q01DX001 (ip), vehicle: distilled water + Tween-80): 100 % of control
T/C (endpoint: median survival time, dose: 500.0 mg/kg/injection, schedule: Q01DX001 (ip), vehicle: distilled water + Tween-80): 100 % of control

CC(=O)CC(C)(C)S(=O)(=O)Cc1ccccc1
T/C [15]: 93 % of control
T/C [16]: 96 % of control
T/C [17]: 96 % of control

CC(=O)OCC(=O)C1CCC2C3CCC4CC(OC(C)=O)CCC4(C)C3CCC12C (stereo unspecified)
T/C [11]: 91 % of control
T/C [12]: 91 % of control
T/C [13]: 105 % of control

O=P(OCC(F)(F)F)(OCC(F)(F)F)OCC(F)(F)F
T/C [18]: 98 % of control
T/C [19]: 102 % of control
T/C (endpoint: mean survival time, dose: 400.0 mg/kg/injection, schedule: Q04DX002 (ip), vehicle: saline with Tween-80): 105 % of control

O=C(CCCCCCCCC(=O)N/N=C/c1ccc(Cl)c(Cl)c1)N/N=C/c1ccc(Cl)c(Cl)c1
T/C [11]: 95 % of control
T/C [12]: 95 % of control
T/C [13]: 94 % of control

COC(=O)c1cccc(C)n1
T/C [5]: 108 % of control
T/C [6]: 94 % of control
T/C [7]: 94 % of control

CSc1nn(C2OC(CO)C(O)C2O)c(=O)[nH]c1=O (stereo unspecified)
T/C (endpoint: mean survival time, dose: 12.5 mg/kg/injection, schedule: Q01DX005 (ip), vehicle: distilled water + Tween-80): 102 % of control
T/C (endpoint: mean survival time, dose: 25.0 mg/kg/injection, schedule: Q01DX005 (ip), vehicle: distilled water + Tween-80): 95 % of control
T/C (endpoint: mean survival time, dose: 50.0 mg/kg/injection, schedule: Q01DX005 (ip), vehicle: distilled water + Tween-80): 98 % of control
T/C (endpoint: mean survival time, dose: 100.0 mg/kg/injection, schedule: Q01DX005 (ip), vehicle: distilled water + Tween-80): 102 % of control
T/C (endpoint: mean survival time, dose: 200.0 mg/kg/injection, schedule: Q01DX005 (ip), vehicle: distilled water + Tween-80): 104 % of control

NC1=NCCCN1
T/C (endpoint: mean survival time, dose: 3.0 mg/kg/injection, schedule: Q01DX009 (ip), vehicle: saline sonified): 109 % of control
T/C (endpoint: mean survival time, dose: 6.0 mg/kg/injection, schedule: Q01DX009 (ip), vehicle: saline sonified): 111 % of control
T/C (endpoint: mean survival time, dose: 12.0 mg/kg/injection, schedule: Q01DX009 (ip), vehicle: saline sonified): 94 % of control

Cc1cc(C)c([S-])c(C)c1.[Cu+]
T/C (endpoint: mean survival time, dose: 4.7 mg/kg/injection, schedule: Q04DX003 (ip), vehicle: saline): 94 % of control
T/C (endpoint: mean survival time, dose: 9.4 mg/kg/injection, schedule: Q04DX003 (ip), vehicle: saline): 94 % of control
